Data reported in patent US11306100B2, “Spirooxindole compounds as GSK3B inhibitors and process for preparation thereof” (COUNCIL OF SCIENTIFIC & INDUSTRIAL RESEARCH, priority 2017, dated 2022).

Experiments:
PANC-1 cells [1] = assay: Cell cycle analysis / cell death by PI uptake, flow cytometry; format: cell-based; conditions: for cell death by FACS: 25 uM compound; for cell death (% of cells in subG1): in combination with TRAIL versus compounds alone or TRAIL alone
Procedure: To determine effect of GSK3β inhibitors on cell death and/or cell cycle progression, PANC-1 cells were treated with identified molecules with or without TRAIL. Upon treatment with compounds in combination with TRAIL, PANC-1 cell death was determined with propidium iodide (PI) uptake measured by Flow cytometry. Treated cells were harvested in cold PBS and fixed in 70% ethanol at −20° C. for overnight. The fixed cells were by centrifugation and re-suspended in PI ([…]) solution containing RNase (0.1 mg/mL) and Triton X-100 (0.05%). The cells were incubated in dark for 1 h at room temperature. The excess PI was washed out using PBS, the resultant PI uptake was analyzed by FACS Caliber System (BD Bio-science, Erembodegem, Belgium) in an FL-2 fluorescence detector (10000 events were recorded for each condition). Flow cytometry data was analyzed using FCS express 4 software (De Novo Software, Los Angeles, Calif., USA).

recombinant GSK3β = recombinant GSK3β (Homo sapiens, UniProt P49841); assay: ADP-Glo kinase assay of GSK3β activity; format: biochemical; conditions: for IC50: GSK3β kinase activity, 2 μM ATP
Sequence of recombinant GSK3β (P49841 whole entry): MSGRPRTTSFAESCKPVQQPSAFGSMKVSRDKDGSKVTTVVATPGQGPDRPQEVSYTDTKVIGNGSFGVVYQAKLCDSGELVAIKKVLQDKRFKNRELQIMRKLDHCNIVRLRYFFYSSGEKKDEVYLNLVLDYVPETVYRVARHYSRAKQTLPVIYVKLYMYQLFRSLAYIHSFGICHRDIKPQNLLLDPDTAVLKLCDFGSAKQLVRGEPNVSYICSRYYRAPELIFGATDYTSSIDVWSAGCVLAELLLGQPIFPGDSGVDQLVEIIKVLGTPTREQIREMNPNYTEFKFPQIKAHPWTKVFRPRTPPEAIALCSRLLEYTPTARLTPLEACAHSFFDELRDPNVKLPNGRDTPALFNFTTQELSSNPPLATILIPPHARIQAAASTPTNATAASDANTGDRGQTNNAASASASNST
Procedure: Activity of recombinant GSK3β is measured using ADP-Glo Kinase assay according to supplier's standard protocol with minor modifications in 384 well format. Briefly, kinase reaction mixture was prepared by adding […] of recombinant enzyme, 2 μM ATP, 1 μg of enzyme substrate along with test compound or DMSO to a final volume of 5 μl. The kinase reaction was performed by incubating the mixture at room temperature for 17 mins. To correct reaction back ground a substrate blank reaction was also performed. ADP glow reagent (equal volume to reaction mixture) was added to the reaction mixture to deplete any unused ATP added to the kinase reaction and incubated at further 40 min at 27° C. Then 10 μl of kinase detection reagent was added followed by incubation for 30 min at 27° C. to convert ADP to ATP and introduce luciferase to measure kinase activity. The luminescence was measured using luminometer (Perkin Elmer) which is directly proportional to ADP generated in kinase reaction. To determine the amount of ADP produced in kinase reaction and calculate specific activity of the enzyme, a conversion curve is prepared by serial dilution of ADP and ATP mixture. Specific activity of the GSK3β was calculated using the following equation. (ADP(kinase reaction)−ADP(substrate blank)) in mmol)/(Reaction time in min)×(GSK3β in mg).

[2] = system: cellular GSK3β signalling in PANC-1 cells; assay: Western blot of GSK3β signalling and NFkB target proteins in PANC-1 cells; format: cell-based; conditions: for phosphorylation of GSK3β: PANC-1 cells treated with compound; for β-catenin level: PANC-1 cells versus control (DMSO); for BCL2 and XIAP levels: compound with TRAIL versus TRAIL alone or compound alone; for bcl2 and xiap expression: dose dependence of compound; for Cyclin D1 levels / phosphorylation of GSK3β (9th serine residue): in combination with TRAIL; for p-GS (phosphorylated glycogen synthase) level: increasing concentrations of compound, total GS unaffected
Procedure: The compounds inhibiting GSK3β activity in-vitro added to PANC-1 cells to determine their potential against intracellular GSK3β signalling pathways in cancer cells. Briefly, PANC-1 cells were plated in 60 mm plates (100,000 cells/4 mL) and cultured in the standard DMEM medium containing 10% serum. After culturing for 18 hrs, different concentrations of test compounds or standard controls prepared in DMSO were added to culture media to achieve final concentration 0 to 100 μM of compound to cells. Cells were further continued to grow for 48 h with constant supply of 5% CO2 in humid incubator. The time course (0 to 48 h) experiment was carried out simultaneously with fixed concentration of compound showing 50% growth inhibition. At the end of the experiments, all cells were scraped directly in cold PBS and washed for 3 times before lysis directly in 2D lysis buffer (8M urea, 2M thiourea, 4% CHAPS, 4 mM tris base and 65 mM DTT) for isolation of proteins to perform western blots. The protein concentration was determined by modified Bradford assay.
To perform western blot, protein extracts were separated on 12% SDS-PAGE and electrophoretically (1 mA/cm^2 membrane for 1 hr) transferred onto the nitrocellulose membrane by semi-dry method. After protein transfer, membrane was stained with Ponceau S solution (0.2% Ponceau S in 3% Trichloroacetic acid) for 2 min to see efficiency of electrophoretic transfer. The membrane was destained in ddH2O to visualize the protein bands and further destained with TBST (20 mM Tris, 138 mM NaCl, pH 7.6 and 0.1% Tween 20) for blotting. To avoid non-specific detection of target proteins, blotted membranes were blocked with BSA (3% BSA in TBST solution). All antibodies against specific protein targets of interest were purchased from Cell Signaling Technology, USA if not mentioned specifically. Then the blots were incubated with antibodies prepared in blocking buffer (1:1000 Antibody to blocking buffer dilution) for 18 h with constant shaking at 4° C. Three washing steps in PBS each for 5 mins removed the excess and non-specific antibodies. For visualization, blots were incubated with secondary antibody conjugated to either horseradish peroxidase or alkaline phosphatase [anti-(mouse IgG) or anti-(rabbit IgG), diluted 1:5000 in TBST] for 1 h at room temperature. After three washes in PBS, the reaction was developed either by addition of LumiGLO substrate (Cell Signaling Technology) followed by capturing on X-ray film or addition of chromogenic NBT (nitro-blue tetrazolium chloride) and BCIP (5-bromo-4-chloro-3′-indolyphosphate p-toluidine salt) substrate for alkaline phosphatase developing purple colored bands. The blots were scanned for densitometry performed using Image-J program.

PANC-1 cells [3] = assay: Colony formation (soft agar, clonogenic) assay; format: cell-based
Procedure: To determine the efficiency of GSK3β inhibitors in combination with the TRIAL on anchorage independent growth of PANC-1 cells soft agar assay were performed. The base agar (0.5%) was prepared by mixing equal amounts of 1% agar with 2× media (20% FBS and 2× antibiotics) filled in 6-well plate. Simultaneously, PANC-1 cells (14000/well) mixed with 2× media containing different concentrations of identified compounds alone or in combination with TRAIL mixed with 0.7% of sterile agar to achieve final concentration of […] top agar. The cell suspension was spread on solidified base agar. Then the plates were incubated in CO2 incubator for 14 days and the cells were fed with fresh media containing respective concentration and combination of TRIAL every 3 days. Upon termination (after 14 days of incubation) plates were stained with 0.005% of crystal violet for 1 h and excess stain was removed by washing with MQ. The number of blue colonies were counted using olympus Xi71 microscope.

[4] = compound in the presence of TRAIL 10 ηg/mL

| inhibition of GSK3β in in-vitro kinase assays (recombinant GSK3β) | IC50 (recombinant GSK3β) [µM] | Structure (SMILES) | cell death by FACS (PANC-1 cells [1]) | cell death (% of cells in subG1) (PANC-1 cells [1]) | phosphorylation of GSK3β [2] | β-catenin level [2] | BCL2 and XIAP levels [2] | bcl2 and xiap expression [2] | Cyclin D1 levels [2] | phosphorylation of GSK3β (9th serine residue) [2] | p-GS (phosphorylated glycogen synthase) level [2] | inhibition of colony formation (PANC-1 cells [3]; compound alone, 14 days) | inhibition of colony formation (PANC-1 cells [3]; [4]) |
| --- | --- | --- | --- | --- | --- | --- | --- | --- | --- | --- | --- | --- | --- |
| potent inhibition | 3.88 ± 0.01 | CCOC(=O)c1ccc(-c2ccccc2OCc2cn(CC3CC4(CO3)C(=O)Nc3ccccc34)nn2)nc1C (centres unmarked) [AB-O, Ethyl 2-methyl-6-(2-((1-((2′-oxo-4,5-dihydro-2H-spiro[furan-3,3′-indoline]-5-yl)methyl)-1H-1,2,3-triazol-4-yl)methoxy)phenyl)nicotinate] | cell death even at 25 uM | more cell death | significantly decreased | accumulation of β-catenin | synergistic effect | decreased in a dose dependent manner | significantly reduced | synergistic effect | significantly decreased | dose-dependent inhibition | more effective inhibition of colony formation |
| potent inhibition | 4.92 ± 0.13 | COc1ccccc1N1CCN(CC2CC3(CO2)C(=O)Nc2ccccc23)CC1 (centres unmarked) [AB-U, 5-((4-(2-Methoxyphenyl)piperazin-1-yl)methyl)-4,5-dihydro-2H-spiro[furan-3,3′-indolin]-2′-one] | cell death even at 25 uM | more cell death | significantly decreased | accumulation of β-catenin | synergistic effect | decreased in a dose dependent manner | significantly reduced | synergistic effect | significantly decreased | dose-dependent inhibition | more effective inhibition of colony formation |
